Test results as given in ChEMBL document CHEMBL4431367, “Role of a gitogenin-type steroidal saponin (3-O-β-d-glucopyranosyl (1→2)-β-d-glucopyranosyl (1→4)-β-d-galactopyranoside-25R,5α-spirostane-2α,3β-diol), isolated from the leaves of Malvastrum coromandelianum in regulating thyrotoxicosis in rats” (2016).
The source made the active and inactive calls. The rule behind the calls is not given here.

What was measured:
[1] = system: Rattus norvegicus; assay: (§1) Antithyroid activity in L-T4-induced Wistar albino rat model of hyperthyroidism assessed as inhibition of hepatic 5'-monodeiodinase 1 activity using T4 as substrate at 20 mg/kg, po qd post 12 days of L-T4 challenge measured after 15 days in presence of [125I]-T3 by RIA; type: functional, organism-based
[2] = system: Rattus norvegicus; assay: Antioxidant activity in L-T4-induced Wistar albino rat model of hyperthyroidism assessed as lipid peroxidation level by measuring MDA formation per mg protein at 10 mg/kg, po qd post 12 days of L-T4 challenge measured after 15 days by TBARS assay (reference value: 1.34 +/- 0.19 nM/hr); type: functional
[3] = system: Rattus norvegicus; assay: Antioxidant activity in L-T4-induced Wistar albino rat model of hyperthyroidism assessed as lipid peroxidation level by measuring MDA formation per mg protein at 20 mg/kg, po qd post 12 days of L-T4 challenge measured after 15 days by TBARS assay (reference value: 1.34 +/- 0.19 nM/hr); type: functional
[4] = system: Rattus norvegicus; assay: Antioxidant activity in L-T4-induced Wistar albino rat model of hyperthyroidism assessed as lipid peroxidation level by measuring MDA formation per mg protein at 30 mg/kg, po qd post 12 days of L-T4 challenge measured after 15 days by TBARS assay (reference value: 1.34 +/- 0.19 nM/hr); type: functional
[5] = system: Rattus norvegicus; assay: Antithyroid activity in L-T4-induced Wistar albino rat model of hyperthyroidism assessed as serum T3 level at 10 mg/kg, po qd post 12 days of L-T4 challenge measured after 15 days in presence of [125I]-T3 by RIA (reference value: 2.31 +/- 0.53 ng/ml); type: functional
[6] = system: Rattus norvegicus; assay: Antithyroid activity in L-T4-induced Wistar albino rat model of hyperthyroidism assessed as serum T3 level at 20 mg/kg, po qd post 12 days of L-T4 challenge measured after 15 days in presence of [125I]-T3 by RIA (reference value: 2.31 +/- 0.53 ng/ml); type: functional
[7] = system: Rattus norvegicus; assay: Antithyroid activity in L-T4-induced Wistar albino rat model of hyperthyroidism assessed as serum T4 level at 20 mg/kg, po qd post 12 days of L-T4 challenge measured after 15 days in presence of [125I]-T4 by RIA (reference value: 92.14 +/- 3.45 ng/ml); type: functional
[8] = system: Rattus norvegicus; assay: Antithyroid activity in L-T4-induced Wistar albino rat model of hyperthyroidism assessed as serum T3 level at 30 mg/kg, po qd post 12 days of L-T4 challenge measured after 15 days in presence of [125I]-T3 by RIA (reference value: 2.31 +/- 0.53 ng/ml); type: functional
[9] = system: Rattus norvegicus; assay: Antithyroid activity in L-T4-induced Wistar albino rat model of hyperthyroidism assessed as serum T4 level at 10 mg/kg, po qd post 12 days of L-T4 challenge measured after 15 days in presence of [125I]-T4 by RIA (reference value: 92.14 +/- 3.45 ng/ml); type: functional
[10] = system: Rattus norvegicus; assay: Antithyroid activity in L-T4-induced Wistar albino rat model of hyperthyroidism assessed as serum T4 level at 30 mg/kg, po qd post 12 days of L-T4 challenge measured after 15 days in presence of [125I]-T4 by RIA (reference value: 92.14 +/- 3.45 ng/ml); type: functional
[11] = system: Rattus norvegicus; assay: Antithyroid activity in L-T4-induced Wistar albino rat model of hyperthyroidism assessed as reduction in T3 level at 20 mg/kg, po qd post 12 days of L-T4 challenge measured after 15 days in presence of [125I]-T3 by RIA; type: functional
[12] = system: Rattus norvegicus; assay: Antithyroid activity in L-T4-induced Wistar albino rat model of hyperthyroidism assessed as decrease in body weight loss at 20 mg/kg, po qd post 12 days of L-T4 challenge measured after 15 days; type: functional, organism-based
[13] = system: Rattus norvegicus; assay: Antioxidant activity in L-T4-induced Wistar albino rat model of hyperthyroidism assessed as increase in superoxide dismutase activity by measuring pyrogallol oxidization per mg protein at 20 mg/kg, po qd administered post 12 days of L-T4 challenge measured on day 28; type: functional, organism-based
[14] = system: Rattus norvegicus; assay: Antioxidant activity in L-T4-induced Wistar albino rat model of hyperthyroidism assessed as increase in catalase activity by measuring H2O2 utilization per mg protein at 20 mg/kg, po qd administered post 12 days of L-T4 challenge measured every 5 secs for 30 secs on day 28 by spectrophotometric method; type: functional, organism-based
[15] = system: Rattus norvegicus; assay: Antioxidant activity in L-T4-induced Wistar albino rat model of hyperthyroidism assessed as reduction in total GSH content per mg of protein at 20 mg/kg, po qd administered post 12 days of L-T4 challenge measured after 15 days by Ellman's method; type: functional, organism-based
[16] = system: Rattus norvegicus; assay: Antithyroid activity in L-T4-induced Wistar albino rat model of hyperthyroidism assessed as reduction in glucose-6-phosphatase activity at 20 mg/kg, po qd post 12 days of L-T4 challenge measured after 15 days; type: functional, organism-based
[17] = system: Rattus norvegicus; assay: Antithyroid activity in L-T4-induced Wistar albino rat model of hyperthyroidism assessed as reduction in T4 level at 20 mg/kg, po qd post 12 days of L-T4 challenge measured after 15 days in presence of [125I]-T4 by RIA; type: functional
[18] = system: Rattus norvegicus; assay: as §1, with “1 activity by measuring reduction in T3 level using T4” for “1 activity using T4”; type: functional
[19] = organism: Rattus norvegicus; assay: animal or person; conditions: Wistar, po, read-out: INH
Description: Antithyroid activity in L-T4-induced Wistar albino rat model of hyperthyroidism assessed as reduction in T3 level at 10 mg/kg, po qd post 12 days of L-T4 challenge measured after 15 days in presence of [125I]-T3 by RIA

[20] = organism: Rattus norvegicus; assay: animal or person; conditions: Wistar, po, read-out: INH; remark: listed apart in the source
Description: Antithyroid activity in L-T4-induced Wistar albino rat model of hyperthyroidism assessed as reduction in T4 level at 10 mg/kg, po qd post 12 days of L-T4 challenge measured after 15 days in presence of [125I]-T4 by RIA

[21] = organism: Rattus norvegicus; assay: animal or person; conditions: Wistar, po, read-out: INH; remark: listed apart in the source
Description: Antithyroid activity in L-T4-induced Wistar albino rat model of hyperthyroidism assessed as inhibition of hepatic 5'-monodeiodinase 1 activity by measuring reduction in T3 level using T4 as substrate at 10 mg/kg, po qd post 12 days of L-T4 challenge measured after 15 days in presence of [125I]-T3 by RIA

For `C[C@@H]1CC[C@@]2(OC1)O[C@H]1C[C@H]3[C@@H]4CC[C@H]5C[C@@H](O[C@@H]6O[C@H](CO)[C@H](O)[C@H](O[C@@H]7O[C@H](CO)[C@@H](O)[C@H](O)[C@H]7O[C@@H]7O[C@H](CO)[C@@H](O)[C@H](O)[C@H]7O)[C@H]6O)[C@H](O)C[C@]5(C)[C@H]4CC[C@]3(C)[C@H]1[C@@H]2C`, the inhibition [1] was “Active”, the Activity [2] was 0.871 nM/h and the Activity [3] was 0.312 nM/h. The Activity [4] was 0.976 nM/h, the Activity [5] was 1.91 ng/mL and the Activity [6] was 0.31 ng/mL. For the same compound, the Activity [7] was 38.7 ng/mL, the Activity [8] was 0.99 ng/mL and the Activity [9] was 79.81 ng/mL. The Activity [10] was 49.85 ng/mL, the inhibition in vivo at 20 mg/kg [11] was 56% and the Activity [12] was “Active”. For the same compound, the Activity [13] was “Active”, the Activity [14] was “Active” and the Activity [15] was “Active”. The Activity [16] was “Active”, the inhibition in vivo at 20 mg/kg [17] was 88.8% and the inhibition in vivo at 20 mg/kg [18] was 75.1%.

`CCCc1cc(=O)[nH]c(=S)[nH]1` [PROPYLTHIOURACIL] was tested, and the inhibition in vivo at 10 mg/kg [19] was 56.5%, the inhibition in vivo at 10 mg/kg [20] was 81% and the inhibition in vivo at 10 mg/kg [21] was 59%.
